Patent US9055743B2, “Alpha, beta-unsaturated imines” (BAYER INTELLECTUAL PROPERTY GMBH, priority 2010, dated 2015)

Legend:
Assay type in all cases: in vivo
[1] = system: caterpillars of the army worm (Spodoptera frugiperda); test: Spodoptera frugiperda test (SPODFR spray treatment); conditions: 500 g/ha, spray, after 7 days; for pest or weed control at 500 g/ha: Spodoptera frugiperda, 168 h, read-out: activity (caterpillars killed)
In short: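 Activity in % read 7 days after armyworm caterpillars were placed on dried, sprayed Zea mays leaf discs; 0% means none killed. Spray prepared from an acetone/DMF concentrate with emulsifier, diluted with emulsifier-containing water.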

Culex quinquefasciatus = test: whole plant or invertebrate; conditions: for knock-down activity: 100 mg/m^2, two hours after contact, exposition 30 minutes; for mortality at 100 mg/m2: Culex quinquefasciatus, read-out: activity (mortality in %)
Description: Culex Test (CULXFA Surface Treatment) Solvent: Acetone
To produce a suitable preparation of active compound, the active compound is dissolved in acetone (2 mg/ml). The active compound preparation is pipetted onto a glazed tile and, after drying, adult mosquitoes of the species Culex quinquefasciatus are placed onto the treated tile. The exposition time is 30 minutes.
Two hours after contact to the treated surface, the knock-down proportion of the test animals in % is determined.
24 hours after contact to the treated surface, the mortality in % is determined. Here, 100% means that all mosquitoes have been killed; 0% means that none of the mosquitoes has been killed.

[2] = system: bed bugs of the species Cimex lectularius; test: whole plant or invertebrate; conditions: for mortality at 100 mg/m2: Cimex lectularius, read-out: activity (mortality in %)
Description: Cimex Test (CIMXLE Surface Treatment)
To produce a suitable preparation of the active compound, the active compound is dissolved in acetone (2 mg/ml). The active compound preparation is pipetted onto a glazed tile and, after drying, adult bed bugs of the species Cimex lectularius are placed onto the treated tile. The exposition time is 30 minutes.
Two hours after contact to the treated surface, the knock-down proportion of the test animals in % is determined
24 hours after contact to the treated surface, the mortality in % is determined. Here, 100% means that all bed bugs have been killed; 0% means that none of the bed bugs have been killed.

[3] = system: greenhouse red spider mite (Tetranychus urticae); test: Tetranychus test; OP-resistant (TETRUR spray treatment); conditions: 500 g/ha, spray, after 6 days; for pest or weed control at 500 g/ha: Tetranychus urticae, 144 h, read-out: activity (spider mites killed)
In short: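 Activity, as % of mites killed (0–100%), was assessed 6 days after spraying. The spray was compound formulated with acetone, DMF and emulsifier, then diluted in water. It was applied to Phaseolus vulgaris leaf discs carrying every life stage of an OP-resistant spider mite strain.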

[4] = system: Boophilus microplus strain Parkhurst, SP-resistant; test: Boophilus microplus test (DIP); conditions: 100 ppm, after 7 days
Description: Boophilus microplus Test (DIP) Test Animals: Adult Fat Females of the Boophilus microplus Strain Parkhurst—SP-Resistant) Solvent: Dimethyl Sulphoxide
10 mg of active compound are dissolved in 0.5 ml of dimethyl sulphoxide. To produce a suitable formulation, the active compound solution is diluted with water to the particular desired concentration.
This active compound preparation is pipetted into tubes. 8-10 ticks are transferred into a further tube provided with holes. The tube is dipped into the active compound preparation, with all the ticks being wetted completely. After the liquid has run off, the ticks are transferred to filter discs in plastic dishes and kept in a climatized room. After 7 days, the activity is checked for deposition of fertile eggs. Eggs whose fertility is not visible from the outside are kept in glass tubes in a climatized cupboard until the larvae have hatched. An activity of 100% means that no tick has laid fertile eggs.

[5] = system: brown dog ticks (Rhipicephalus sanguineus, fully sensitive laboratory strain); test: Contact test against ticks in vitro (RHIPSA contact); conditions: active compound concentration 4 g/ha
Description: Contact Test Against Ticks In Vitro (RHIPSA Contact)
An amount of 0.9 mg of active compound is weighed out, and 1 ml of acetone is added.
Of this acetone solution, either 250 μl are transferred directly into roll-necked test tubes or an aliquot is diluted with 4 parts of acetone 1:5. For its part, 250 μl of this dilution are pipetted into roll-necked test tubes, or the dilution is diluted further, etc., until the desired number of dilution steps is reached.
The roll-necked test tubes containing the solution of the active compound in acetone are immediately coated in a fume cupboard by 2 h of swing rotation at 30 rpm. After evaporation of the solvent, the active compound contained in the acetone gives, at the highest concentration tested, an active compound content of 500 g/ha (or […]) on the surface of the test tube.
5-10 Adult brown dog ticks (Rhipicephalus sanguineus, fully sensitive laboratory strain) are transferred into the test tubes prepared in this manner, and the test tubes are closed with a plastic roll-necked lid provided with fine holes.
The test tubes are stored vertically at room temperature and humidity for 24 or 48 h in the dark. After 24 and 48 h, the activity of the active compound applied is determined by comparison with an acetone-treated control. […]

Compound: Cc1ccc(N=C2C(=CSc3ccc(F)cc3)CCc3ccccc32)cc1 [Example 1-9]
- pest or weed control at 500 g/ha [1]: 100%
- knock-down activity (Culex quinquefasciatus): 100%
- mortality at 100 mg/m2 (Culex quinquefasciatus): 100%
- knock-down activity ([2]; 100 mg/m^2, two hours after contact, exposition 30 minutes): 80%
- mortality at 100 mg/m2 [2]: 100%
- pest or weed control at 500 g/ha [3]: 100%

Compound: Cc1ccc(N=C2C(=CSc3ccc(F)cc3)CCc3cc(F)ccc32)cc1 [Example 1-16]
- pest or weed control at 500 g/ha [1]: 100%
- knock-down activity (Culex quinquefasciatus): 95%
- mortality at 100 mg/m2 (Culex quinquefasciatus): 100%
- mortality at 100 mg/m2 [2]: 90%
- pest or weed control at 500 g/ha [3]: 100%
- activity (100% = no tick has laid fertile eggs) [4]: 100%

Compound: Cc1ccc(N=C2C(=CSc3ccc(C)cc3)CCc3ccccc32)cc1 [Example 1-28]
- activity (caterpillars killed) [1]: 100%
- knock-down activity (Culex quinquefasciatus): 95%
- activity (spider mites killed) [3]: 100%
- activity (100% = no tick has laid fertile eggs) [4]: 100%

Compound: Cc1ccc(N=C2C(=CSc3ccc(F)cc3)CSc3ccccc32)cc1 [Example 1-35]
- pest or weed control at 500 g/ha [1]: 100%
- Kill rate in % after 2 days [5]: 100%
- mortality at 100 mg/m2 (Culex quinquefasciatus): 100%
- pest or weed control at 500 g/ha [3]: 100%

Compound: Cc1ccc(N=C2C(=CSc3ccc(F)cc3)C(C)c3ccccc32)cc1 (centres unmarked) [Example 1-57]
- pest or weed control at 500 g/ha [1]: 100%
- mortality at 100 mg/m2 (Culex quinquefasciatus): 100%
- pest or weed control at 500 g/ha [3]: 100%
